Ki data for 20 compounds are collected here from patent US7981896B2 (Athersys, Inc., priority 2006, dated 2011).

This test addresses T1, human histamine H3 receptor (Homo sapiens, UniProt Q9Y5N1).
T1 construct: endogenous in cells; host or cells: HT1080-Gqαi5 RAGE clone (RAGE-H3), human fibrosarcoma line; integrated RAGE vector pFG8-HH3 supplies exon 1, the cell's own gene supplies the other exons
The test is described as follows: Competition radioligand binding assay with [125I]iodoproxyfan on membranes of RAGE-H3 (HT1080-Gqαi5) cells expressing human H3 receptor. To be noted: ~0.15 nM [125I]iodoproxyfan, 1.5 hrs at room temperature, head does not name the quantity (apparent Ki by Cheng-Prussof). As to the method: Representative compounds of the present invention that were prepared by the procedures of Examples 1-83 were evaluated in binding assays against cells expressing human H3 receptor by the following procedure.
[^125I]iodoproxyfan (2000 Ci/mmol) was obtained from Amersham Bioscience (Piscataway, N.J.). All other chemicals were either from Sigma-Aldrich (St. Louis, Mo.) or Tocris Cookson Inc. (Ellisville, Mo.).
The human histamine H3 receptor was stably expressed in HT1080 cells containing the chimeric G-protein, Gq[…]i5 (Coward et al., Anal Biochem 1999; 270:242-8). HT1080-Gqαi5 cells were grown in alpha-modified MEM containing 10% fetal bovine serum and 7 μg/ml blasticidin at 37° C. in 5% CO2/95% atmosphere. Cells (4.8×10^9) were irradiated with 50 rads from a ^137Cs source and the pFG8-HH3 RAGE (Random Activation of Gene Expression; see Harrington et al., Nature Biotechnology. 2001; 19:440-45) vector was subsequently integrated into the cells via electroporation (250V, 600 μF, 50Ω). The RAGE vector pFG8-HH3 contained cDNA sequence coding for the first exon (83 amino acids) of human H3 receptor. After electroporation, cells were plated in T75 flasks and grown in alpha-modified MEM. The culture medium was replaced 48 hrs after electroporation with alpha-modified MEM, 10% fetal bovine serum, 500 μg/ml hygromycin B and 3 μg/ml puromycin. Medium was replaced every four days during cell expansion. To identify RAGE activated cells expressing the H3 receptor, pools of approximately 10,000 colonies (5×10^7-1.5×10^8 cells total) were screened by PCR for the desired gene product (using primers specific to the RAGE vector and exon 2 of the H3 receptor). […] Positive 100 cells/well pools were identified by PCR, confirmed by sequencing, and subsequently subcloned to 0.8 cells/well. Once clones expressing the H3 receptor were identified by PCR analysis, assays (FLIPR or radioligand binding) were performed to confirm that the activated gene produced functional protein. The protein expression in the initial clones obtained from the RAGE library was increased by growth in the presence of methotrexate. Since the integrated RAGE vector contains the DHFR gene, such treatment selects for cells that have amplified the genetic locus containing the RAGE insert. Subclones obtained after methotrexate amplification were tested for functional activity in FLIPR assays to identify the clone that was most suitable for HTS. The final HT1080-Gqαi5 RAGE clone (RAGE-H3) expressing the human histamine H3 receptor was grown in alpha-modified MEM containing 10% fetal bovine serum, 3 μg/ml puromycin, 500 μg/ml hygromycin B, 3.2 μM methotrexate at 37° C. in 5% CO2/95% atmosphere.
RAGE-H3 cells (10^9) were washed twice with cold PBS, scraped off the plates, and centrifuged at 1000×g for 5 minutes. Cells were resuspended in ice-cold 10 mM Tris HCl, pH 7.4, containing 5 mM EDTA and protease inhibitor cocktail tablets (Roche Molecular Biochemicals). After incubating on ice for 10 min, the cells were homogenized with a dounce homogenizer or a polytron tissue grinder, and centrifuged at 1000×g for 10 min at 4° C. The resulting supernatant was centrifuged at 32,000×g for 30 min at 4° C. The membrane pellets were resuspended in 50 mM Tris HCl, pH 7.4, and stored at −80° C. until use. Protein concentration was determined by the Bradford method (Bio-Rad Laboratories, CA).
Binding assays were carried out in 96-well polypropylene plates in 50 mM Tris HCl, pH 7.4, containing 1 mM EDTA. Reaction mixtures contained 100 μl of membrane suspension, 50 μl of 4% DMSO, and 50 μl of increasing amounts of [^125I]iodoproxyfan (final concentration 0.0005-1.8 nM for human H3 receptor saturation binding assay). Nonspecific binding was defined by adding 10 μM clobenpropit to the reaction mixtures. […]

A value given as a limit tells only on which side of the number the result lay.

T1 sequence (Q9Y5N1 whole entry): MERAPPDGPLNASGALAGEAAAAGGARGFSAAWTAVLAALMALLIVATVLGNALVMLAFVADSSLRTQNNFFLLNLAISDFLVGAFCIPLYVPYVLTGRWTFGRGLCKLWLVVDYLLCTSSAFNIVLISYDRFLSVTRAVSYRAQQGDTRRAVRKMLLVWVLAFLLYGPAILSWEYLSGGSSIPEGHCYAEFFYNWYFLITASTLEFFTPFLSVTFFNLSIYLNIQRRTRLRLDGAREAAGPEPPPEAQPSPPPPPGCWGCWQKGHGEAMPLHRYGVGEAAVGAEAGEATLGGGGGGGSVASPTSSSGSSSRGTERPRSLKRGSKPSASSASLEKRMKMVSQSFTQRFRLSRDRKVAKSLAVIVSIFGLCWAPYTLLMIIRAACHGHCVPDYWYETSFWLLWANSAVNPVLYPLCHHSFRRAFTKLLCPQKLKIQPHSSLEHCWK

Regarding `Cc1nn(-c2ccc(OCCCN3CCOCC3)cc2)c2c1CCc1ccccc1-2` [Example 3, 3-Methyl-1-[4-(3-morpholin-1-ylpropoxy)phenyl]-4,5-dihydro-1H-benzo[g]indazole], the Ki was less than 10 nM.
The value for `Cc1cc(CC(C)C)n(-c2ccc(OCCCN3CCCCC3)cc2)n1` [Example 29, 5-Isobutyl-3-methyl-1-[4-(3-piperidin-1-ylpropoxy)-phenyl]-1H-pyrazole] was less than 100 nM.
Consider “3-Phenyl-1-[4-(3-pyrrolidin-1-ylpropoxy)phenyl]-4,5,6,7-tetrahydro-2H-indazole [Example 44]”, for which the Ki was less than 100 nM.
Regarding `Cc1cc(C(=O)NC2CCCCC2)n(-c2ccc(OCCCN3CCCCC3)cc2)n1` [Example 75, 5-Methyl-2-[4-(3-piperidin-1-ylpropoxy)phenyl]-2H-pyrazole-3-carboxylic acid cyclohexylamide], the Ki was less than 1 nM.
As to `Cc1cc(C(=O)NC2CCCCC2)n(-c2ccc(OCCCN3CCOCC3)cc2)n1` [Example 76, 5-Methyl-2-[4-(3-morpholin-4-ylpropoxy)phenyl]-2H-pyrazole-3-carboxylic acid cyclohexylamide], the Ki was less than 10 nM.
Consider `Cc1cc(C(=O)NCC2CCCCC2)n(-c2ccc(OCCCN3CCCC3)cc2)n1` [Example 79, 5-Methyl-2-[4-(3-pyrrolidin-1-ylpropoxy)phenyl]-2H-pyrazole-3-carboxylic acid cyclohexylmethylamide], for which the Ki is less than 1 nM.
The figure for `Cc1nn(-c2ccc(OCCCN3CCCC3C)cc2)c2c1sc1ccccc12` (centres unmarked) [Example 65, 3-Methyl-1-{4-[3-(2-methyl-pyrrolidin-1-yl)-propoxy]-phenyl}-1H-benzo[4,5]thieno[3,2-c]pyrazole] is less than 10 nM.
The value for `FC(F)(F)c1cc(-c2ccccc2)n(-c2ccc(OCCCN3CCCCC3)cc2)n1` [Example 54, 1-{3-[4-(5-Phenyl-3-trifluoromethyl-pyrazol-1-yl)-phenoxy]-propyl}-piperidine] was less than 100 nM; that for `Cc1c2c(nn1-c1ccc(OCCCN3CCCC3)cc1)CCC2` [Example 58, 3-Methyl-2-[4-(3-pyrrolidin-1-yl-propoxy)-phenyl]-2,4,5,6-tetrahydro-cyclopentapyrazole] was less than 100 nM; that for `Cc1nn(-c2ccc(OCCCN3CCCC3)cc2)c2c1CCC2` [Example 57, 3-Methyl-1-[4-(3-pyrrolidin-1-yl-propoxy)-phenyl]-1,4,5,6-tetrahydro-cyclopentapyrazole] was less than 10 nM.
The figure for `Cc1nn(-c2ccc(OCCCN3CCCC3)cc2)c(C)c1-c1ccccc1` [Example 39, 4-Phenyl-3,5-dimethyl-1-[4-(3-pyrrolidin-1-ylpropoxy)phenyl]-1H-pyrazole] is less than 10 nM.
In the case of `CC(C)c1cc(C(C)C)n(-c2ccc(OCCCN3CCCCC3)cc2)n1` [Example 25, 3,5-Diisopropyl-1-[4-(3-piperidin-1-yl-propoxy)-phenyl]-1H-pyrazole], the Ki is less than 10 nM.
The value for `Cc1nn(-c2ccc(OCCCN3CCCC3)cc2)c2c1CCc1ccccc1-2` [Example 1, 3-Methyl-1-[4-(3-pyrrolidin-1-ylpropoxy)phenyl]-4,5-dihydro-1H-benzo[g]indazole] was less than 10 nM; that for `Cc1cc(OCCCN2CCCCC2)ccc1-n1nc(C(C)C)cc1C(C)C` [Example 62, 3,5-Diisopropyl-1-[2-methyl-4-(3-piperidin-1-ylpropoxy)phenyl]-1H-pyrazole] was less than 10 nM.
The value for `FC(F)(F)c1cc(-c2ccccc2)n(-c2ccc(OCCCN3CCCC3)cc2)n1` [Example 50, 5-Phenyl-1-[4-(3-pyrrolidin-1-yl-propoxy)-phenyl]-3-trifluoromethyl-1H-pyrazole] was less than 10 nM; that for `CCc1c(C)nn(-c2ccc(OCCCN3CCCC3)cc2)c1C` [Example 37, 4-Ethyl-3,5-dimethyl-1-[4-(3-pyrrolidin-1-ylpropoxy)phenyl]-1H-pyrazole] was less than 10 nM; that for `CCc1cc(CC)n(-c2ccc(OCCCN3CCCC3)cc2)n1` [Example 21, 3,5-Diethyl-1-[4-(3-pyrrolidin-1-ylpropoxy)phenyl]-1H-pyrazole] was less than 10 nM.
The figure for `CC(C)c1cc(C(C)C)n(-c2ccc(OCCCN3CCCC3)cc2)n1` [Example 24, 3,5-Diisopropyl-1-[4-(3-pyrrolidin-1-yl-propoxy)-phenyl]-1H-pyrazole] is less than 10 nM; for “3-Methyl-1-[4-(3-piperidin-1-yl-propoxy)-phenyl]-1,4,5,6-tetrahydro-cyclopentapyrazole [Example 59]” it is less than 10 nM.
Take `Cc1cc(CC(C)C)nn1-c1ccc(OCCCN2CCCCC2)cc1` [Example 30]: the Ki was less than 10 nM.
